This is an account of results in patent US20250041415A1, “CYTOTOXIC INNATE LYMPHOID CELL AND USES THEREOF” (Umoja Biopharma, Inc., priority 2021, published 2025).

Test [1] deals with PSMA-positive human prostate cancer cells. The conditions noted are these: DUPA-(99m)Tc; cited from earlier work.
Test [2] deals with common lymphoid progenitors (iPSC line WTC11). The test is described as follows: RACR-signaling replacing common gamma chain cytokines in CLP to CIL differentiation. The format is cell-based, human. Particulars: 4 nM.
Test [3] relates to Vδ2+ T cells transduced with RACR-FRB-mCherry. The test is described as follows: RACR-expansion of blood-derived Vδ2+ T cells. The conditions noted are these: 10 nM, days 14 and 21. The format is cell-based, human. As for the experimental part: On day 14, an aliquot of the cells was collected and washed, stained for V32, and RACR transduction was measured by mCherry. Percent Vδ2+ RACR+ cells, as well as number of transduced V32+ cells measured by counting beads was assessed by detection of V82 stain and mCherry via flow cytometry. Similarly, on day 21, an aliquot of cells was again measured for percent and number of Vδ2+ RACR+ cells via flow cytometry.

For test [4], the system named is iPSC-derived lymphoid progenitor and precursor cells. Nature of the test: RACR-driven differentiation and expansion of iCIL cells from Day 26 lymphoid progenitors. It is filed as cell-based, human. The conditions noted are these: AP21967 100 nM, no other cytokine. The text has this:
The RACR-system was utilized for differentiation to iPSC-derived CIL cells (iCIL cells). The iPSC cell line ATCC-BXS0117 (ATCC #ACS-1031) was differentiated into lymphoid progenitors through the STEMdiff NK cell kit ([…]® Technologies, #100-0170) as described in Example 2 above, up until the Day 26 timepoint. The percentage of cells containing common lymphoid progenitors (CD45+/CD5+/CD7+), CIL precursors (CD45+/CD5−/CD7+), and early CIL cells (CD45+/CD5−/CD7+/CD56+) is seen in FIG. 3D with ˜50% of the cells presenting as CIL precursors and ˜25% of total cells presenting as early CIL cells. […] Activation beads (#130-094-483) were added to cells at a 2:1 ratio and cells were placed in 37° C. incubator overnight to increase transduction of cells.
The cells were engineered with a polynucleotide encoding the RACR synthetic cytokine as described in Example 1, a Tag (anti-FITC) CAR (SEQ ID NO: 13), and an FRB domain for expression of FRB as a diffusible soluble protein in the engineered cell, in which the components were separated by a cleavable linker. The polynucleotide construct payload is designated Tag (anti-FITC) CAR-P2A-FRB-P2A-RACR. […] An aliquot of cells was collected weekly, counted on the Vicell Blu automated cell counter, and stained for CD16 clone 3G8, CD56 clone HCD56, CD45 clone 2D1. […]

For orientation: Kd means the equilibrium constant for the complex coming apart.

In the case of `O=C(O)CC[C@H](NC(=O)N[C@@H](CCC(=O)O)C(=O)O)C(=O)O` [DUPA], in test [1], the Kd was 0.014 µM.

`CO[C@@H]1C[C@H](C[C@@H](C)C2CC(=O)[C@H](C)/C=C(\C)[C@@H](O)[C@@H](OC)C(=O)[C@H](C)C[C@@H](C)/C=C/C=C/C=C(\C)[C@H](c3c[nH]c4c(C)cccc34)C[C@H]3CC[C@@H](C)[C@@](O)(O3)C(=O)C(=O)N3CCCC[C@H]3C(=O)O2)CC[C@@H]1O` (some centres unmarked) [AP21967]: the “percent of RACR-CAR+ CD56+ cells” value in test [2] (Day 40, all four media conditions) is reported as “increase in the percent of RACR-CAR+ CD56+ cells”. Also, in test [2] (media with UM729 alone (None)), the “fold change in RACR-CAR+ cells” value is on record as “largest fold change”. Also, the “percentage and total number of Vδ2+ RACR+ cells” value in test [3] was “increased in both percentage and total number of cells”. Also, the “expansion (total number of TagCAR positive cells)” value in test [4] was “sufficient to drive iCIL expansion”.
